Experimental data published in ChEMBL document CHEMBL1139649, “Hetaryl imidazoles: a novel dual inhibitors of VEGF receptors I and II” (Bioorg Med Chem Lett, 2006).

Biological target: Vascular endothelial growth factor receptor 1 (Homo sapiens, UniProt P17948)
Experiment: Inhibition of VEGFR1 by enzymatic assay

Sequence of Vascular endothelial growth factor receptor 1 (P17948 whole entry): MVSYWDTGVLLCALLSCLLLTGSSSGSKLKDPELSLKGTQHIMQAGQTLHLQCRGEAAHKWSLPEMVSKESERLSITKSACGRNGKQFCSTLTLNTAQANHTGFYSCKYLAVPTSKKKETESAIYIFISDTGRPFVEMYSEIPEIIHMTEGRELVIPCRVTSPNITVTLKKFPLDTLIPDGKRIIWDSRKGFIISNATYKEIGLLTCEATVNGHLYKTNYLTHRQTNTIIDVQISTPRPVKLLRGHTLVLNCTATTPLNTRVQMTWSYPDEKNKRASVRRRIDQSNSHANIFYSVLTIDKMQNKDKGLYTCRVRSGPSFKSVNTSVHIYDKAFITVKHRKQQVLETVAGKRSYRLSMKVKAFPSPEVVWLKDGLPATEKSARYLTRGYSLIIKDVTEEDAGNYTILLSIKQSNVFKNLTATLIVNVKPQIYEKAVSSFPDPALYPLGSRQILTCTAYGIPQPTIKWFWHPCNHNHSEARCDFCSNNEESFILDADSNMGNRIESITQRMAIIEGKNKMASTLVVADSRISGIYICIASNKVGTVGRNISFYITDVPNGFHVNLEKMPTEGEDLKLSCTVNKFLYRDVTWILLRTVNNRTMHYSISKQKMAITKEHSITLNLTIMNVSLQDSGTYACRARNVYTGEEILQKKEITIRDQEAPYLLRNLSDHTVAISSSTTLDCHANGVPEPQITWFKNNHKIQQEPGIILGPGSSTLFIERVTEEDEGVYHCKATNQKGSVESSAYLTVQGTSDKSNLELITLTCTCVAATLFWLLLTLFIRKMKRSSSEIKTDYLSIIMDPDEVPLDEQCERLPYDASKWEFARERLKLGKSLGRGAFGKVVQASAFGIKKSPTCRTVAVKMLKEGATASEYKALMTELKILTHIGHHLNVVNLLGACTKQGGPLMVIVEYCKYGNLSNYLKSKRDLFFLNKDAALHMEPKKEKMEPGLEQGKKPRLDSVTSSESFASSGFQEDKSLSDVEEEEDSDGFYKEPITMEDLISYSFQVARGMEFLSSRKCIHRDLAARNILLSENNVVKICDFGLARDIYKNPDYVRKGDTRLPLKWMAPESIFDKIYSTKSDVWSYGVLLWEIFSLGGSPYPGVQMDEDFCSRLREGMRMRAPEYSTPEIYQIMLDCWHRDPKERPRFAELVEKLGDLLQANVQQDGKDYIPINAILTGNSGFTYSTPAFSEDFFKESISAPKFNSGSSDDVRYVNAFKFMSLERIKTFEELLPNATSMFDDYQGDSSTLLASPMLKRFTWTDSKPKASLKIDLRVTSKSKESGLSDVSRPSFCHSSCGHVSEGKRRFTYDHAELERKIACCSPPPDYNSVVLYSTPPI

Row | IC50 [nM] | Compound
1 | > 10000 | Cc1ccccc1Nc1nnc(-c2c(NCc3ccncc3)ncn2C)o1
2 | 1260 | Cc1cccc(Nc2nnc(-c3c(NCc4ccncc4)ncn3C)o2)c1
3 | 590 | Cc1ccc(Nc2nnc(-c3c(NCc4ccncc4)ncn3C)o2)c(F)c1
4 | > 10000 | Cn1cnc(NCc2ccncc2)c1-c1nnc(Nc2ccc(-c3ccccc3)cc2)o1

Biological target: Cyclin-dependent kinase 2 (Homo sapiens) (UniProt P24941)
Experiment: […] against Cdk2 at 10 uM by HTRF method

Row | Percent inhibition [%] | Compound
5 | < 30 | Cc1ccccc1Nc1nnc(-c2c(NCc3ccncc3)ncn2C)o1
6 | < 30 | Cc1cccc(Nc2nnc(-c3c(NCc4ccncc4)ncn3C)o2)c1
7 | < 30 | Cc1ccc(Nc2nnc(-c3c(NCc4ccncc4)ncn3C)o2)c(F)c1
8 | < 30 | Cn1cnc(NCc2ccncc2)c1-c1nnc(Nc2ccc(-c3ccccc3)cc2)o1

Biological target: Hepatocyte growth factor receptor (Homo sapiens) (UniProt P08581)
Experiment: Percent inhibition against c-Met at 10 uM by HTRF method
Design: scale not given: the % may be the effect or the level left

Sequence of Hepatocyte growth factor receptor (Homo sapiens) (P08581 whole entry): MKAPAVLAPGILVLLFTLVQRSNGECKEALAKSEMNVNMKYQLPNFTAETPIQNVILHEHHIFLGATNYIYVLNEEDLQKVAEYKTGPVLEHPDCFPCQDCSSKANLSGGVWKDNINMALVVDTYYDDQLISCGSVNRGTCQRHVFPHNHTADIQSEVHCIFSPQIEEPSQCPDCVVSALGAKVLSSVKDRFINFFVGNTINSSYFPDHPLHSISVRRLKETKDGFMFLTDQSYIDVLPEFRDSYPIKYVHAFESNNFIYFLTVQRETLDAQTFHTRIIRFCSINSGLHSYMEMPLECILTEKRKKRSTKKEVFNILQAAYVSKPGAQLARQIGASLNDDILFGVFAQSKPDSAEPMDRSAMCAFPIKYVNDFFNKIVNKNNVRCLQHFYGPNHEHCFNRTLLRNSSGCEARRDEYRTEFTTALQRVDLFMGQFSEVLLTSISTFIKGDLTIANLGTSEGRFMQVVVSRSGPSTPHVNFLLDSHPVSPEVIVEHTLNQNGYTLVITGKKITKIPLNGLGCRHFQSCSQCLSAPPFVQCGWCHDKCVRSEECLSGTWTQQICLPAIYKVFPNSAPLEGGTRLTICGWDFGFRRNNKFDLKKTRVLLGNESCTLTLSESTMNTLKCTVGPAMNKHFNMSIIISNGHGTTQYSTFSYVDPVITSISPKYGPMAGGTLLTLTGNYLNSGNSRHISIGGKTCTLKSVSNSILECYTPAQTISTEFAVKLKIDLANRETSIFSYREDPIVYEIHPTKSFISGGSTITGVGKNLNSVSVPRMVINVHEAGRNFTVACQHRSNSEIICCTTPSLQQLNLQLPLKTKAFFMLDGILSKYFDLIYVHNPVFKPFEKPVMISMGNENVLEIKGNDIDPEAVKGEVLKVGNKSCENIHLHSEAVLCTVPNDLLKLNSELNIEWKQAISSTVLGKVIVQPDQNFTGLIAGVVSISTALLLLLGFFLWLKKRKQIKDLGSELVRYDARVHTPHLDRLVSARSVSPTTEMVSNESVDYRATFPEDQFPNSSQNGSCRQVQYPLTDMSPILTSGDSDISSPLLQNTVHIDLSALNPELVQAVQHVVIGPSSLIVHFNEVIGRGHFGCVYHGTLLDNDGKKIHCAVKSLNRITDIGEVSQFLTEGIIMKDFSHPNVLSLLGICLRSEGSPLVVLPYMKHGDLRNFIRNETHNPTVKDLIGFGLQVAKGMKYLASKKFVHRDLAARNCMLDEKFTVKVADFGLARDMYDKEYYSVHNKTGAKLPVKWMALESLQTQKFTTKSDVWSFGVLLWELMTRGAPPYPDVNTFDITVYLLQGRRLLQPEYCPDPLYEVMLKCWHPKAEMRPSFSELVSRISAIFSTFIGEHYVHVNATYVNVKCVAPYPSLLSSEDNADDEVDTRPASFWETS

Row | Activity [%] | Compound
9 | < 30 | Cc1ccccc1Nc1nnc(-c2c(NCc3ccncc3)ncn2C)o1
10 | < 30 | Cc1cccc(Nc2nnc(-c3c(NCc4ccncc4)ncn3C)o2)c1
11 | < 30 | Cc1ccc(Nc2nnc(-c3c(NCc4ccncc4)ncn3C)o2)c(F)c1
12 | < 30 | Cn1cnc(NCc2ccncc2)c1-c1nnc(Nc2ccc(-c3ccccc3)cc2)o1

Biological target: Cyclin-dependent kinase 5 (Homo sapiens) (UniProt Q00535)
Experiment: […] against Cdk5 at 10 uM by HTRF method

Sequence of Cyclin-dependent kinase 5 (Homo sapiens) (Q00535 whole entry, looked up): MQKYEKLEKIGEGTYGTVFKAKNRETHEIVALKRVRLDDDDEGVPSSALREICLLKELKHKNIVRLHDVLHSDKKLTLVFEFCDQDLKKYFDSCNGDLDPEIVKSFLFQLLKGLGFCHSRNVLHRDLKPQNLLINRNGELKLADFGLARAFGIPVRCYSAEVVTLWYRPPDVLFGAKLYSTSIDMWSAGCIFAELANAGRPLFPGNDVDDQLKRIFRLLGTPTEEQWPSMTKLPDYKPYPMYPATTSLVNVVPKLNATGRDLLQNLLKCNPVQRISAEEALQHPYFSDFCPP

Row | Activity [%] | Compound
13 | < 30 | Cc1ccccc1Nc1nnc(-c2c(NCc3ccncc3)ncn2C)o1
14 | < 30 | Cc1cccc(Nc2nnc(-c3c(NCc4ccncc4)ncn3C)o2)c1
15 | < 30 | Cc1ccc(Nc2nnc(-c3c(NCc4ccncc4)ncn3C)o2)c(F)c1
16 | < 30 | Cn1cnc(NCc2ccncc2)c1-c1nnc(Nc2ccc(-c3ccccc3)cc2)o1

Biological target: Bcr/Abl fusion protein (Homo sapiens) (UniProt P00519+P11274)
Experiment: Inhibition of bcr-Abl at 10 uM by HTRF method
Format: protein assay
Design: scale not given: the % may be the effect or the level left

Row | Activity [%] | Compound
17 | < 30 | Cc1ccccc1Nc1nnc(-c2c(NCc3ccncc3)ncn2C)o1
18 | < 30 | Cc1cccc(Nc2nnc(-c3c(NCc4ccncc4)ncn3C)o2)c1
19 | < 30 | Cc1ccc(Nc2nnc(-c3c(NCc4ccncc4)ncn3C)o2)c(F)c1
20 | < 30 | Cn1cnc(NCc2ccncc2)c1-c1nnc(Nc2ccc(-c3ccccc3)cc2)o1

Biological target: Receptor tyrosine-protein kinase erbB-2 (Homo sapiens) (UniProt P04626)
Experiment: […] against ErbB2 at 10 uM by HTRF method

Row | Activity [%] | Compound
21 | < 30 | Cc1ccccc1Nc1nnc(-c2c(NCc3ccncc3)ncn2C)o1
22 | < 30 | Cc1cccc(Nc2nnc(-c3c(NCc4ccncc4)ncn3C)o2)c1
23 | < 30 | Cc1ccc(Nc2nnc(-c3c(NCc4ccncc4)ncn3C)o2)c(F)c1
24 | < 30 | Cn1cnc(NCc2ccncc2)c1-c1nnc(Nc2ccc(-c3ccccc3)cc2)o1

Biological target: cAMP-dependent protein kinase (PKA) (Homo sapiens) (UniProt P22694+P17612+P22612)
Experiment: Inhibition against PKA at 10 uM by HTRF method
Format: protein assay
Design: scale not given: the % may be the effect or the level left

Row | Activity [%] | Compound
25 | < 30 | Cc1ccccc1Nc1nnc(-c2c(NCc3ccncc3)ncn2C)o1
26 | < 30 | Cc1cccc(Nc2nnc(-c3c(NCc4ccncc4)ncn3C)o2)c1
27 | < 30 | Cc1ccc(Nc2nnc(-c3c(NCc4ccncc4)ncn3C)o2)c(F)c1
28 | < 30 | Cn1cnc(NCc2ccncc2)c1-c1nnc(Nc2ccc(-c3ccccc3)cc2)o1

Biological target: RAC-alpha serine/threonine-protein kinase (Homo sapiens) (UniProt P31749)
Experiment: […] against PKB/Akt at 10 uM by HTRF method

Sequence of RAC-alpha serine/threonine-protein kinase (Homo sapiens) (P31749 whole entry): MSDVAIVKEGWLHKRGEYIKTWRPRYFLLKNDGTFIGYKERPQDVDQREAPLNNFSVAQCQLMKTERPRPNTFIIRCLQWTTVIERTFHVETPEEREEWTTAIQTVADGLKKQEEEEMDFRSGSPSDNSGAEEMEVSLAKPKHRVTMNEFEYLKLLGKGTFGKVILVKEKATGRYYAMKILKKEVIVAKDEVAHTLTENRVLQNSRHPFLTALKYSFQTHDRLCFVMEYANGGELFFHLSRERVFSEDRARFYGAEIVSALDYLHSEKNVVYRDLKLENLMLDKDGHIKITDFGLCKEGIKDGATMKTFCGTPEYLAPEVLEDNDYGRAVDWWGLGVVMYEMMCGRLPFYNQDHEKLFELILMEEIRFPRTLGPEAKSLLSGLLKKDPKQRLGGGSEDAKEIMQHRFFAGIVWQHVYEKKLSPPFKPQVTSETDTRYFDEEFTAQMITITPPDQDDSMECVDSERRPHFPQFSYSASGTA

Row | Activity [%] | Compound
29 | < 30 | Cc1ccccc1Nc1nnc(-c2c(NCc3ccncc3)ncn2C)o1
30 | < 30 | Cc1cccc(Nc2nnc(-c3c(NCc4ccncc4)ncn3C)o2)c1
31 | < 30 | Cc1ccc(Nc2nnc(-c3c(NCc4ccncc4)ncn3C)o2)c(F)c1
32 | < 30 | Cn1cnc(NCc2ccncc2)c1-c1nnc(Nc2ccc(-c3ccccc3)cc2)o1

Biological target: Epidermal growth factor receptor (Homo sapiens) (UniProt P00533)
Experiment: […] against ErbB1 at 10 uM by HTRF method

Row | Percent inhibition [%] | Compound
33 | < 30 | Cc1ccccc1Nc1nnc(-c2c(NCc3ccncc3)ncn2C)o1
34 | < 30 | Cc1cccc(Nc2nnc(-c3c(NCc4ccncc4)ncn3C)o2)c1
35 | < 30 | Cc1ccc(Nc2nnc(-c3c(NCc4ccncc4)ncn3C)o2)c(F)c1
36 | < 30 | Cn1cnc(NCc2ccncc2)c1-c1nnc(Nc2ccc(-c3ccccc3)cc2)o1

Biological target: Receptor-type tyrosine-protein kinase FLT3 (Homo sapiens) (UniProt P36888)
Experiment: Inhibition of Flt3 at 10 uM by HTRF method
Design: scale not given: the % may be the effect or the level left

Sequence of Receptor-type tyrosine-protein kinase FLT3 (Homo sapiens) (P36888 whole entry): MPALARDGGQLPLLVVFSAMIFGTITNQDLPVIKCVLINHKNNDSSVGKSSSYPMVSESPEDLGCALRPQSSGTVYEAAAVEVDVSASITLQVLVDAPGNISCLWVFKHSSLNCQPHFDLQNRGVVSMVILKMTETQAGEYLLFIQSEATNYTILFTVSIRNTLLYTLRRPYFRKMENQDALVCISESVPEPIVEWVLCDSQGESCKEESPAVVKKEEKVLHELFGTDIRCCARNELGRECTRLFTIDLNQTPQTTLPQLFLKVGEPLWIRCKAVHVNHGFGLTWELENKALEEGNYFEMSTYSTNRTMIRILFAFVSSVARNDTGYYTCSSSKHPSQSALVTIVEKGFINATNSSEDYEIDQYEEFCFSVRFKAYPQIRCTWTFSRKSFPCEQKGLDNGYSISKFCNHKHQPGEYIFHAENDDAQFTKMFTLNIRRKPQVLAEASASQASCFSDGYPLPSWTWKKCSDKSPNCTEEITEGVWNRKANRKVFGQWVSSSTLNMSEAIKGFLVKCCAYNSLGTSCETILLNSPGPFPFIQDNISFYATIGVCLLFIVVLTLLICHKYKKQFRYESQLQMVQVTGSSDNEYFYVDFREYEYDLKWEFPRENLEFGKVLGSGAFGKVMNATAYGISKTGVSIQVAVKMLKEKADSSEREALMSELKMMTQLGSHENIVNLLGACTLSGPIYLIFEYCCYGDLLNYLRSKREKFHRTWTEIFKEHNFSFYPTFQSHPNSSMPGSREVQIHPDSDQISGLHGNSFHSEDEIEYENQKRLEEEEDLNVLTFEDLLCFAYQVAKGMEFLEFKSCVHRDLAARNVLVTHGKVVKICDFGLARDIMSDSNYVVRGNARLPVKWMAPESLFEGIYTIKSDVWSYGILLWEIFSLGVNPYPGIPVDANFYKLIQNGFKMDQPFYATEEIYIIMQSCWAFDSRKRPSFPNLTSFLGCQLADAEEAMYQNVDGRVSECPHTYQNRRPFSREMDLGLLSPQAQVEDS

Row | Activity [%] | Compound
37 | < 30 | Cc1ccccc1Nc1nnc(-c2c(NCc3ccncc3)ncn2C)o1
38 | < 30 | Cc1cccc(Nc2nnc(-c3c(NCc4ccncc4)ncn3C)o2)c1
39 | < 30 | Cc1ccc(Nc2nnc(-c3c(NCc4ccncc4)ncn3C)o2)c(F)c1
40 | < 30 | Cn1cnc(NCc2ccncc2)c1-c1nnc(Nc2ccc(-c3ccccc3)cc2)o1

Biological target: Glycogen synthase kinase-3 beta (Homo sapiens) (UniProt P49841)
Experiment: Inhibition against GSK3-beta at 10 uM by HTRF method
Design: scale not given: the % may be the effect or the level left

Sequence of Glycogen synthase kinase-3 beta (Homo sapiens) (P49841 whole entry, looked up): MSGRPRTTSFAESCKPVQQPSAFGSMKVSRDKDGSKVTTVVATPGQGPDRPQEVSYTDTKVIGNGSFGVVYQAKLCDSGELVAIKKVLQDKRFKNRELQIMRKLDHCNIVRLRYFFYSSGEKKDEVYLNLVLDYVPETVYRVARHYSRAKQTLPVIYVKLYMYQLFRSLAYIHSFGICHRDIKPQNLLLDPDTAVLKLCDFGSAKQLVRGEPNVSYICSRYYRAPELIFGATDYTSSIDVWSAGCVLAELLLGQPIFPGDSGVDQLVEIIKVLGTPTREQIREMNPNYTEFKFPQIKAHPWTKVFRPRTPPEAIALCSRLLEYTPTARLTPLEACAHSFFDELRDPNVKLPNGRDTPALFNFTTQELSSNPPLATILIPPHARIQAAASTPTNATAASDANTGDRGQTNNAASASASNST

Row | Activity [%] | Compound
41 | < 30 | Cc1ccccc1Nc1nnc(-c2c(NCc3ccncc3)ncn2C)o1
42 | < 30 | Cc1cccc(Nc2nnc(-c3c(NCc4ccncc4)ncn3C)o2)c1
43 | < 30 | Cc1ccc(Nc2nnc(-c3c(NCc4ccncc4)ncn3C)o2)c(F)c1
44 | < 30 | Cn1cnc(NCc2ccncc2)c1-c1nnc(Nc2ccc(-c3ccccc3)cc2)o1

Biological target: Insulin-like growth factor 1 receptor (Homo sapiens) (UniProt P08069)
Experiment: […] against IGF1R at 10 uM by HTRF method

Row | Activity [%] | Compound
45 | < 30 | Cc1ccccc1Nc1nnc(-c2c(NCc3ccncc3)ncn2C)o1
46 | < 30 | Cc1cccc(Nc2nnc(-c3c(NCc4ccncc4)ncn3C)o2)c1
47 | < 30 | Cc1ccc(Nc2nnc(-c3c(NCc4ccncc4)ncn3C)o2)c(F)c1
48 | < 30 | Cn1cnc(NCc2ccncc2)c1-c1nnc(Nc2ccc(-c3ccccc3)cc2)o1

Biological target: Fibroblast growth factor receptor 1 (Homo sapiens) (UniProt P11362)
Experiment: Percent inhibition against FGFR1 at 10 uM by HTRF method
Design: scale not given: the % may be the effect or the level left

Row | Activity [%] | Compound
49 | < 30 | Cc1ccccc1Nc1nnc(-c2c(NCc3ccncc3)ncn2C)o1
50 | < 30 | Cc1cccc(Nc2nnc(-c3c(NCc4ccncc4)ncn3C)o2)c1
51 | < 30 | Cc1ccc(Nc2nnc(-c3c(NCc4ccncc4)ncn3C)o2)c(F)c1
52 | < 30 | Cn1cnc(NCc2ccncc2)c1-c1nnc(Nc2ccc(-c3ccccc3)cc2)o1

Biological target: T1, Vascular endothelial growth factor receptor 2 (Homo sapiens, UniProt P35968)
Experiment: Inhibition of VEGFR2 by enzymatic assay

Row | IC50 [nM] | Compound
53 | > 10000 | Cc1ccccc1Nc1nnc(-c2c(NCc3ccncc3)ncn2C)o1
54 | 710 | Cc1cccc(Nc2nnc(-c3c(NCc4ccncc4)ncn3C)o2)c1
55 | 260 | Cc1ccc(Nc2nnc(-c3c(NCc4ccncc4)ncn3C)o2)c(F)c1
56 | 3220 | Cn1cnc(NCc2ccncc2)c1-c1nnc(Nc2ccc(-c3ccccc3)cc2)o1

Biological target: T1, Vascular endothelial growth factor receptor 2
Experiment: Inhibition of VEGFR2 in 293 adenovirus transfected kidney cells by cell-based ELISA assay

Row | IC50 [nM] | Compound
57 | 640 | Cc1ccc(Nc2nnc(-c3c(NCc4ccncc4)ncn3C)o2)c(F)c1

Biological target: T2, Ephrin type-B receptor 4 (Homo sapiens) (UniProt P54760)
T2 sequence (whole entry): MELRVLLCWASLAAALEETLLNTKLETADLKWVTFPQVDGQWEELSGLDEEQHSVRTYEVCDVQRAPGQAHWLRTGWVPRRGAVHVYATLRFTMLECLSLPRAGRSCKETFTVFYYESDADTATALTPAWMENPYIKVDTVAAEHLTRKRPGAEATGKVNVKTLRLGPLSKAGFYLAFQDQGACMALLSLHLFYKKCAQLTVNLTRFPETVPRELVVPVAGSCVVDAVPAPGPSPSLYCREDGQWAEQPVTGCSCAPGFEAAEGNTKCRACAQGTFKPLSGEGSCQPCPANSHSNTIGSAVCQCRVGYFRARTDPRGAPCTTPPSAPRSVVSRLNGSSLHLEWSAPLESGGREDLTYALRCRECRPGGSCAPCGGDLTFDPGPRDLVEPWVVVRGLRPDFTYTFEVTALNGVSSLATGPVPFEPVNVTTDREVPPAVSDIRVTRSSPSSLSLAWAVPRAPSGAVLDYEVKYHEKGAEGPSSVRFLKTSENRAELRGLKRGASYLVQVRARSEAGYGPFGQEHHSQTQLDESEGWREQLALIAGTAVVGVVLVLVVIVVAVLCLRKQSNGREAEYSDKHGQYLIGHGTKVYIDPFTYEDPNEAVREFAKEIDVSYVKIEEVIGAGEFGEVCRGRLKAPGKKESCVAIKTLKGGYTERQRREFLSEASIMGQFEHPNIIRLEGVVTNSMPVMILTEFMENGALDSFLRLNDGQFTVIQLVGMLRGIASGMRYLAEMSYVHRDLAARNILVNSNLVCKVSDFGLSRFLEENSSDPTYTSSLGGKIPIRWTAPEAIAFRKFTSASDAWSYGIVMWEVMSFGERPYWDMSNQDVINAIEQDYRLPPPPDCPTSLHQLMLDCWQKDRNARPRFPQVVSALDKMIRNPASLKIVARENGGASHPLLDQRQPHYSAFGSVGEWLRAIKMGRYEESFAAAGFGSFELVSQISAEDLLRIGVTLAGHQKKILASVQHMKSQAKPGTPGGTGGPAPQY
Experiment: Percent inhibition against EphB4 at 10 uM by HTRF method
Design: scale not given: the % may be the effect or the level left

Row | Activity [%] | Compound
58 | < 30 | Cc1ccccc1Nc1nnc(-c2c(NCc3ccncc3)ncn2C)o1
59 | < 30 | Cc1cccc(Nc2nnc(-c3c(NCc4ccncc4)ncn3C)o2)c1
60 | < 30 | Cc1ccc(Nc2nnc(-c3c(NCc4ccncc4)ncn3C)o2)c(F)c1
61 | < 30 | Cn1cnc(NCc2ccncc2)c1-c1nnc(Nc2ccc(-c3ccccc3)cc2)o1
